Data as given in the supplement of paper PMC10307832.

Assays:
Assay in all cases: relative viability (nuclei count vs DMSO), 5 days (fraction); higher = more cells survive
EHT 1864 + Tozasertib = compound: C1COCCN1CC2=CC(=O)C(=CO2)OCCCCCSC3=C4C=CC(=CC4=NC=C3)C(F)(F)F [EHT 1864] + Cc1cc(Nc2cc(N3CCN(C)CC3)nc(Sc3ccc(NC(=O)C4CC4)cc3)n2)n[nH]1 [Tozasertib] (partner 0.1 µM)
In short: (§1)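 Relative viability is defined as nuclei in treated wells over nuclei in vehicle wells. Duplicate plates were run and medians reported. Lung cancer cell lines in 1536-well plates were dosed by pin tool one day after seeding, with one drug or with a fixed anchor-drug dose plus five library-drug doses (not always all listed) in √10 steps, and nuclei were counted after 5 days.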

EHT 1864 + Lapatinib = compound: C1COCCN1CC2=CC(=O)C(=CO2)OCCCCCSC3=C4C=CC(=CC4=NC=C3)C(F)(F)F [EHT 1864] + CS(=O)(=O)CCNCc1ccc(-c2ccc3ncnc(Nc4ccc(OCc5cccc(F)c5)c(Cl)c4)c3c2)o1 [Lapatinib] (partner 2 µM)
In short: as §1

EHT 1864 + Crizotinib = compound: C1COCCN1CC2=CC(=O)C(=CO2)OCCCCCSC3=C4C=CC(=CC4=NC=C3)C(F)(F)F [EHT 1864] + C[C@@H](Oc1cc(-c2cnn(C3CCNCC3)c2)cnc1N)c1c(Cl)ccc(F)c1Cl [Crizotinib] (partner 1 µM)
In short: as §1

EHT 1864 + Decitabine = compound: C1COCCN1CC2=CC(=O)C(=CO2)OCCCCCSC3=C4C=CC(=CC4=NC=C3)C(F)(F)F [EHT 1864] + Nc1ncn([C@H]2C[C@H](O)[C@@H](CO)O2)c(=O)n1 [Decitabine] (partner 2 µM)
In short: as §1

Row | Cell Line | relative viability (EHT 1864 + Tozasertib; first compound 0.04 µM) | relative viability (EHT 1864 + Tozasertib; first compound 0.1265 µM) | relative viability (EHT 1864 + Tozasertib; first compound 0.4 µM) | relative viability (EHT 1864 + Tozasertib; first compound 1.265 µM) | relative viability (EHT 1864 + Tozasertib; first compound 4 µM) | relative viability (EHT 1864 + Lapatinib; first compound 0.04 µM) | relative viability (EHT 1864 + Lapatinib; first compound 0.1265 µM) | relative viability (EHT 1864 + Lapatinib; first compound 0.4 µM) | relative viability (EHT 1864 + Lapatinib; first compound 1.265 µM) | relative viability (EHT 1864 + Lapatinib; first compound 4 µM) | relative viability (EHT 1864 + Crizotinib; first compound 0.04 µM) | relative viability (EHT 1864 + Crizotinib; first compound 0.1265 µM) | relative viability (EHT 1864 + Crizotinib; first compound 0.4 µM) | relative viability (EHT 1864 + Crizotinib; first compound 1.265 µM) | relative viability (EHT 1864 + Crizotinib; first compound 4 µM) | relative viability (EHT 1864 + Decitabine; first compound 0.04 µM) | relative viability (EHT 1864 + Decitabine; first compound 0.1265 µM) | relative viability (EHT 1864 + Decitabine; first compound 0.4 µM) | relative viability (EHT 1864 + Decitabine; first compound 1.265 µM) | relative viability (EHT 1864 + Decitabine; first compound 4 µM)
1 | RERF-LC-KJ | 0.493 | 0.473 | 0.523 | 0.381 | 0.352 | 0.916 | 0.913 | 0.925 | 0.798 | 0.854 | 0.794 | 0.816 | 0.769 | 0.784 | 0.787 | 0.588 | 0.691 | 0.61 | 0.694 | 0.576
2 | SK-LU-1 | 0.313 | 0.286 | 0.274 | 0.297 | 0.293 | 0.91 | 0.65 | 0.795 | 0.878 | 0.781 | 0.982 | 0.865 | 0.927 | 0.911 | 0.737 | 0.732 | 0.632 | 0.567 | 0.657 | 0.658
3 | SK-MES-1 | 0.972 | 0.885 | 0.888 | 0.823 | 0.81 | 0.469 | 0.48 | 0.517 | 0.439 | 0.443 | 1 | 0.972 | 1.04 | 0.968 | 0.996 | 0.365 | 0.398 | 0.377 | 0.448 | 0.41
4 | SW 1573 | 0.173 | 0.158 | 0.172 | 0.225 | 0.154 | 1.22 | 0.912 | 1.12 | 1.03 | 1.06 | 0.827 | 0.74 | 0.803 | 0.813 | 0.856 | 0.655 | 0.478 | 0.463 | 0.55 | 0.339
5 | UMC-11 | 0.206 |  | 0.2 | 0.207 | 0.192 | 0.724 |  | 1.05 | 0.938 | 0.987 | 0.611 | 0.537 | 0.568 | 0.607 | 0.507 | 0.447 | 1.15 | 0.731 | 0.693 | 0.736
